Measurements taken from ChEMBL document CHEMBL2157932, “Synthesis and pharmacological evaluation of carbamic acid 1-phenyl-3-(4-phenyl-piperazine-1-yl)-propyl ester derivatives as new analgesic agents” (Bioorg Med Chem Lett, 2012).
Activity calls are given as the source filed them. The rule behind the calls is not given here.

Columns and labels:
Mus musculus [1] = assay: Analgesic activity in ip dosed mouse assessed as inhibition of acetic acid-induced writhing response administered 0.5 to 1 hr before acetic acid challenge; assay type: functional
Mus musculus [2] = assay: Neurotoxicity in mouse at 30 mg/kg, ip by rotarod test; assay type: toxicity, organism-based; design: dose 30 mg/kg, route intraperitoneal; conditions: in vivo
[3] = AUCall in rat at 15 mg/kg, iv; assay type: ADME, organism-based; design: dose 15 mg/kg, route intravenous; conditions: plasma
[4] = Half life in rat at 15 mg/kg, iv; assay type: ADME, organism-based; design: dose 15 mg/kg, route intravenous; conditions: in vivo
Rattus norvegicus [5] = assay: Antiinflammatory activity in po dosed rat persistent inflammatory pain model assessed as inhibition of carrageenan-induced mechanical hyperalgesia; assay type: functional
[6] = Oral bioavailability in rat at 15 mg/kg; assay type: ADME, organism-based; conditions: in vivo
[7] = AUCall in rat at 15 mg/kg, po; assay type: ADME, organism-based; design: dose 15 mg/kg, route oral; conditions: plasma
[8] = Tmax in rat at 15 mg/kg, po; assay type: ADME, organism-based; design: dose 15 mg/kg, route oral; conditions: in vivo
Mus musculus [9] = species on record: Mus musculus; assay: Antinociceptive activity in mouse by hot plate test in presence of naloxone; assay type: functional, organism-based
[10] = Half life in rat liver microsomes by LC/MS/MS; assay type: ADME, Microsome
[11] = molecular target: 5-hydroxytryptamine receptor 2A (Rattus norvegicus, UniProt P14842); assay: Displacement of [3H]-ketanserin from 5HT2A receptor in rat cortical membrane; assay type: cell membranes
[12] = molecular target: T1, 5-hydroxytryptamine receptor 1A (Rattus norvegicus, UniProt P19327); assay: Displacement of [3H]-8-OH-DPAT from 5HT1A receptor in rat hippocampus; assay type: tissue-based
T1 sequence (P19327 whole entry): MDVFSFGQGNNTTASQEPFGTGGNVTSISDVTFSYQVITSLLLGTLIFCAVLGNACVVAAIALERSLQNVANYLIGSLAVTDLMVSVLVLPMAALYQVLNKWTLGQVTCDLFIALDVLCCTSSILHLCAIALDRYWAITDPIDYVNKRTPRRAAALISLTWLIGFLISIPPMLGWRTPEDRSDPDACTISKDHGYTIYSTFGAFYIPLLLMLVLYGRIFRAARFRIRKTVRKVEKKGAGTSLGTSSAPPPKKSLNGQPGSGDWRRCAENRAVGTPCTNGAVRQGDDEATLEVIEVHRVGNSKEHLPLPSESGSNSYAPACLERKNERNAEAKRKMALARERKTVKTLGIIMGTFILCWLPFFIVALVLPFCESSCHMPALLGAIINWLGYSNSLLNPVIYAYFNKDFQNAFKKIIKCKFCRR

Mus musculus [13] = assay: Inhibition of DOI-induced head twitches in ip dosed mouse; assay type: functional, organism-based
[14] = Half life in rat at 15 mg/kg, po; assay type: ADME, organism-based; design: dose 15 mg/kg, route oral; conditions: in vivo
[15] = Clearance in rat at 15 mg/kg, iv; assay type: ADME, organism-based; design: dose 15 mg/kg, route intravenous; conditions: in vivo
Mus musculus [16] = assay: Neurotoxicity in mouse assessed as myoreflexation or sedation at 139 mg/kg, po by rotarod test; assay type: toxicity, organism-based; design: dose 139 mg/kg, route oral; conditions: in vivo
[17] = Binding affinity to opioid receptor at 10 uM
Mus musculus [18] = assay: Antinociceptive activity in po dosed mouse by hot plate test; assay type: functional
Mus musculus [19] = assay: Inhibition of 5-hydroxytryptophan-induced head twitches in mouse at 10 mg/kg, ip; assay type: functional; conditions: route intraperitoneal
[20] = molecular target: 5-hydroxytryptamine receptor 2A (Homo sapiens, UniProt P28223); assay: Antagonist activity at 5HT2A receptor; assay type: functional
[21] = Half life in human liver microsomes by LC/MS/MS; assay type: ADME, Microsome
[22] = Binding affinity to prostaglandin synthetase at 10 uM
Mus musculus [23] = assay: Inhibition of 5-hydroxytryptophan-induced head twitches in mouse at 3 mg/kg, ip; assay type: functional; conditions: route intraperitoneal
Mus musculus [24] = assay: Inhibition of DOI-induced head twitches in mouse at 3 mg/kg, ip; assay type: functional; conditions: route intraperitoneal
[25] = molecular target: Sodium-dependent noradrenaline transporter (Homo sapiens) (UniProt P23975); assay: Binding affinity to norepinephrine transporter at 10 uM
Mus musculus [26] = assay: Analgesic activity in po dosed mouse assessed as inhibition of acetic acid-induced writhing response administered 0.5 to 1 hr before acetic acid challenge; assay type: functional
Mus musculus [27] = assay: Neurotoxicity in mouse assessed as myoreflexation or sedation at 52.7 mg/kg, ip by rotarod test; assay type: toxicity, organism-based; design: dose 52.7 mg/kg, route intraperitoneal; conditions: in vivo
[28] = molecular target: 5-hydroxytryptamine receptor 2B (Homo sapiens, UniProt P41595); assay: Binding affinity to 5HT2B receptor
Mus musculus [29] = assay: Inhibition of DOI-induced head twitches in mouse at 1 mg/kg, ip; assay type: functional; conditions: route intraperitoneal
[30] = molecular target: Sigma non-opioid intracellular receptor 1 (Homo sapiens, UniProt Q99720); assay: Binding affinity to Sigma1
Mus musculus [31] = assay: Inhibition of DOI-induced head twitches in mouse at 0.3 mg/kg, ip; assay type: functional; conditions: route intraperitoneal
[32] = Cmax in rat at 15 mg/kg, iv; assay type: ADME, organism-based; design: dose 15 mg/kg, route intravenous; conditions: in vivo
[33] = Cmax in rat at 15 mg/kg, po; assay type: ADME, organism-based; design: dose 15 mg/kg, route oral; conditions: in vivo
[34] = Volume of distribution at steady state in rat at 15 mg/kg, iv; assay type: ADME, organism-based; design: dose 15 mg/kg, route intravenous; conditions: in vivo, read-out: Vdss
Mus musculus [35] = assay: Analgesic activity in mouse assessed as inhibition of acetic acid-induced writhing response at 10 mg/kg, ip administered 0.5 to 1 hr before acetic acid challenge; assay type: functional; conditions: route intraperitoneal
Mus musculus [36] = assay: Neurotoxicity in mouse at 100 mg/kg, ip by rotarod test; assay type: toxicity, organism-based; design: dose 100 mg/kg, route intraperitoneal; conditions: in vivo
Mus musculus [37] = assay: Neurotoxicity in mouse at 20 mg/kg, ip by rotarod test; assay type: toxicity, organism-based; design: dose 20 mg/kg, route intraperitoneal; conditions: in vivo
Mus musculus [38] = assay: Analgesic activity in mouse assessed as inhibition of acetic acid-induced writhing response at 10 mg/kg, po administered 0.5 to 1 hr before acetic acid challenge; assay type: functional
Mus musculus [39] = assay: Neurotoxicity in mouse at 60 mg/kg, ip by rotarod test; assay type: toxicity, organism-based; design: dose 60 mg/kg, route intraperitoneal; conditions: in vivo
Mus musculus [40] = assay: Antinociceptive activity in late phase po dosed mouse by formalin test; assay type: functional
Mus musculus [41] = assay: Antinociceptive activity in mouse up to 100 mg/kg, ip by hot plate test; assay type: functional, organism-based; design: dose 100 mg/kg
Rattus norvegicus [42] = assay: Antiinflammatory activity in rat persistent inflammatory pain model assessed as inhibition of carrageenan-induced mechanical hyperalgesia at 100 mg/kg, po; assay type: functional
Mus musculus [43] = assay: Antinociceptive activity in late phase ip dosed mouse by formalin test; assay type: functional

5-hydroxytryptamine receptor 2A (Rattus norvegicus, UniProt P14842), sequence (P14842 whole entry): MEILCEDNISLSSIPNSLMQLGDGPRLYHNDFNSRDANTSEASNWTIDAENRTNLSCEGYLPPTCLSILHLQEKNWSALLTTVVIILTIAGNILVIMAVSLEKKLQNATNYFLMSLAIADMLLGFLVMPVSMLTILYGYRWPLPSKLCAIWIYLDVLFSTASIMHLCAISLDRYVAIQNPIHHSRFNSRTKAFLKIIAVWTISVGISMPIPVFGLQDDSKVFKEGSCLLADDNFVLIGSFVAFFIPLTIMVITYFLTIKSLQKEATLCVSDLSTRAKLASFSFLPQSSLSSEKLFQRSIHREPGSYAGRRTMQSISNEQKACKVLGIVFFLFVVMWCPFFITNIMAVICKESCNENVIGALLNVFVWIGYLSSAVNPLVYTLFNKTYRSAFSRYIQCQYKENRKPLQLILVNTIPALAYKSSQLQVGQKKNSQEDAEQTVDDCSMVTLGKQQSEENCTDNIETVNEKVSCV
5-hydroxytryptamine receptor 2A (Homo sapiens, UniProt P28223), sequence (P28223 whole entry): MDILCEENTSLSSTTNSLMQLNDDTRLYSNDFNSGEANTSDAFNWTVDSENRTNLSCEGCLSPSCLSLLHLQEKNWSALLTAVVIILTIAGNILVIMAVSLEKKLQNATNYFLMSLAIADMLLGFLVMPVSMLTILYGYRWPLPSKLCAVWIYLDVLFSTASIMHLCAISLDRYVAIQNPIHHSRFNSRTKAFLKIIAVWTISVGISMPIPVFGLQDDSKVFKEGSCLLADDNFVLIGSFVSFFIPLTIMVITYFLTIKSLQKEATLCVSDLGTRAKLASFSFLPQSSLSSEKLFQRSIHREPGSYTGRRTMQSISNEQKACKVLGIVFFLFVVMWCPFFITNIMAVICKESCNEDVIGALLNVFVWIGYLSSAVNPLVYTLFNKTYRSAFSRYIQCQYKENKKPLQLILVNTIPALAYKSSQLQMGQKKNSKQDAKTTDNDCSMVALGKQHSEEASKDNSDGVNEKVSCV
5-hydroxytryptamine receptor 2B, sequence (P41595 whole entry): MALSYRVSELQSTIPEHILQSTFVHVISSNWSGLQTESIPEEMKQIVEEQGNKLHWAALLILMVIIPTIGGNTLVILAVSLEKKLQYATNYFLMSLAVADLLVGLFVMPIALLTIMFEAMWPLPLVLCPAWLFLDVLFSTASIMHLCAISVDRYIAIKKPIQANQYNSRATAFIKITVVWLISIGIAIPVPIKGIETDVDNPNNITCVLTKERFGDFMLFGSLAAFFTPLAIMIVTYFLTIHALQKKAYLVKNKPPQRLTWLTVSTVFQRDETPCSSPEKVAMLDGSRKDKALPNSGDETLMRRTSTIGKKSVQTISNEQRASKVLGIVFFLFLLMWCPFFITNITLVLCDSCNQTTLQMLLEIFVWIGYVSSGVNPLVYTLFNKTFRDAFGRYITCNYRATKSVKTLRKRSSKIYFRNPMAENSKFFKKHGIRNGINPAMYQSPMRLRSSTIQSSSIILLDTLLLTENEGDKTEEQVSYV
Sigma non-opioid intracellular receptor 1, sequence (Q99720 whole entry): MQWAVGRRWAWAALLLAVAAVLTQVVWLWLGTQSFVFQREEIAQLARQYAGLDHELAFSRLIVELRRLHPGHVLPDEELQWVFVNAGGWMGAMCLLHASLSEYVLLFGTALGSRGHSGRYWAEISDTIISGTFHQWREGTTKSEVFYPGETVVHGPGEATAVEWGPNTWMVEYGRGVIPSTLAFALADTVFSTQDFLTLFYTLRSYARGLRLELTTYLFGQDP
Sodium-dependent noradrenaline transporter (Homo sapiens), sequence (P23975 whole entry): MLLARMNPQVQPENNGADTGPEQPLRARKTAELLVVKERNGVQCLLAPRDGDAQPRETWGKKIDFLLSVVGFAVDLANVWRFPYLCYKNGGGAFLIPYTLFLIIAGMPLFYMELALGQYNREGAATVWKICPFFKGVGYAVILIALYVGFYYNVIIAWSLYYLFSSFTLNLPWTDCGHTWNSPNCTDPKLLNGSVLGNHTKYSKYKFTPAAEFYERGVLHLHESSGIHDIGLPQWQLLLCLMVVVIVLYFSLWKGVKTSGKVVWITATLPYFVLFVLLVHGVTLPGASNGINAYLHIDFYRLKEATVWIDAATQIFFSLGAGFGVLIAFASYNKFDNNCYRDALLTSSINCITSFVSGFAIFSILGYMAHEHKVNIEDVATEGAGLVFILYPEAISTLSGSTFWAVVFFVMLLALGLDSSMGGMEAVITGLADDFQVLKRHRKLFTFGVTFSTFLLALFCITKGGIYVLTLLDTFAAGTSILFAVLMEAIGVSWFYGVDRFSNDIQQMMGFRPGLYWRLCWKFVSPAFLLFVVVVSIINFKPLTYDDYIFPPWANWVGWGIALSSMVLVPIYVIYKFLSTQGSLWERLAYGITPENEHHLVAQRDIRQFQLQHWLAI

COc1ccccc1N1CCN(CCC(OC(N)=O)c2ccccc2)CC1 (single isomer, unassigned)
ED50 (Mus musculus [1]): 0.67 mg/kg
Activity (Mus musculus [2]): Toxic

COc1ccc(N2CCN(CC[C@@H](OC(N)=O)c3ccccc3)CC2)cc1
AUC [3]: 17800 ng·h/mL
half-life [4]: 1.8 h
Activity (Rattus norvegicus [5]): Dose-dependent effect
ED50 (Rattus norvegicus [5]): 0.68 mg/kg
bioavailability [6]: 73.8%
ED50 (Mus musculus [1]): 0.94 mg/kg
AUC [7]: 13200 ng·h/mL
Tmax [8]: 1.1 h
Activity (Mus musculus [9]): Active
half-life [10]: 1.52 h
IC50 [11]: 5.77 µM
IC50 [12]: 8.82 µM
inhibition (Mus musculus [13]): Dose-dependent effect
half-life [14]: 2.6 h
clearance [15]: 14.1 mL/min/kg
Activity (Mus musculus [16]): Non-toxic
inhibition [17]: inactive
ED50 (Mus musculus [18]): 2.86 mg/kg
inhibition in vivo at 10 mg/kg (Mus musculus [19]): 100%
IC50 [20]: 5.8 µM
half-life [21]: 5.32 h
inhibition [22]: inactive
inhibition in vivo at 3 mg/kg (Mus musculus [23]): 46.2%
inhibition in vivo at 3 mg/kg (Mus musculus [24]): 89.3%
inhibition [25]: inactive
ED50 (Mus musculus [26]): 2.65 mg/kg
Activity (Mus musculus [27]): Non-toxic
Ki [28]: 0.164 µM
inhibition in vivo at 1 mg/kg (Mus musculus [29]): 61.4%
Ki [30]: 0.392 µM
inhibition in vivo at 0.3 mg/kg (Mus musculus [31]): 40%
Cmax [32]: 9950 ng/mL
Cmax [33]: 2200 ng/mL
Vd [34]: 1.77 L/kg

NC(=O)OC(CCN1CCN(c2cccc(C(F)(F)F)c2)CC1)c1ccccc1 (stereo not drawn)
inhibition in vivo at 10 mg/kg (Mus musculus [35]): 14.6%
Activity (Mus musculus [36]): Toxic

NC(=O)OC(CCN1CCN(c2ccc(F)cc2)CC1)c1ccccc1 (single isomer, unassigned)
ED50 (Mus musculus [1]): 0.55 mg/kg
IC50 [12]: 10.5 µM
Activity (Mus musculus [37]): Toxic
inhibition in vivo at 10 mg/kg (Mus musculus [38]): 88%

NC(=O)OC(CCN1CCN(c2cccc(Cl)c2)CC1)c1ccccc1 (stereo not drawn)
ED50 (Mus musculus [1]): 0.57 mg/kg
Activity (Mus musculus [39]): Toxic

O=C(c1ccccc1)c1ccc2n1CCC2C(=O)O (stereo not drawn) [KETOROLAC]
ED50 (Mus musculus [40]): 17.9 mg/kg
Activity (Mus musculus [41]): inactive
inhibition in vivo at 100 mg/kg (Rattus norvegicus [42]): 36.4%
ED50 (Mus musculus [43]): 12.9 mg/kg
